Converted amounts (≈) assume the structure as drawn. Where a SMILES comes first, the peptide text is derived from it. Bridges are numbered along the chain shown (N, C = ends). Roman numbers before positions name the chains, in order. [ ]: non-standard residue; d: D form. Leu(3R-OH) = CC(C)[C@@H](O)[C@H](N)C(=O)O; d(pGlu) = O=C1CC[C@H](C(=O)O)N1; Thr(ol) = C[C@@H](O)[C@H](N)CO; pGlu = O=C1CC[C@@H](C(=O)O)N1; Pen = CC(C)(S)[C@H](N)C(=O)O; Tle = CC(C)(C)[C@H](N)C(=O)O; dDab = NCC[C@@H](N)C(=O)O; Nle = CCCC[C@H](N)C(=O)O; Dab = NCC[C@H](N)C(=O)O; Dap = NC[C@H](N)C(=O)O
Key:
Format in all cases: cell-based
[1] = tested on: human red blood cells (hRBC); test: Hemolysis; settings: red cells of human, 1 h, 200
Summary of the method: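 Washed fresh human RBC (20% v/v) incubated with peptide at 200 μg/mL for 1 h at 37° C with shaking. Supernatant OD540 measured after dilution, blank corrected; percent hemolysis = OD540 peptide / OD540 of 2% Triton X-100 lysis × 100, PBS with 10% water as 0%.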

[2] = tested on: Enterobacter cloacae 848840; settings: 848840
Summary of the method: (§1)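 CLSI broth microdilution in cation-adjusted Mueller-Hinton II broth with 0.002% polysorbate 80 (final), inoculum appr. 10^6 CFU/mL, peptides in serial two-fold dilutions. MIC (μg/mL) is the lowest concentration without visible growth after 18-20 h at 35° C.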

[3] = tested on: Acinetobacter baumannii 872842; settings: 872842
Summary of the method: as §1

Escherichia coli 926415 = settings: 926415
Summary of the method: as §1

[4] = tested on: Klebsiella pneumoniae SSI #3010; settings: SSI #3010
Summary of the method: as §1

[5] = tested on: Klebsiella pneumoniae 968733; settings: 968733
Summary of the method: as §1

[6] = tested on: Escherichia coli ATCC 25922; settings: ATCC 25922
Summary of the method: as §1

[7] = tested on: Pseudomonas aeruginosa ATCC 27853; settings: ATCC 27853
Summary of the method: as §1

[8] = tested on: Acinetobacter baumannii DSM 30008; settings: DSM 30008
Summary of the method: as §1

Compound	Hemolysis at 200 μg/mL [1] [%]	MIC [2] [µg/mL]	MIC [3] [µg/mL]	MIC (Escherichia coli 926415) [µg/mL]	MIC [4] [µg/mL]	MIC [5] [µg/mL]	MIC [6] [µg/mL]	MIC [7] [µg/mL]	MIC [8] [µg/mL]
CCCC[C@H](NC(C)=O)C(=O)N[C@H](C(=O)N[C@@H](Cc1ccc(O)cc1)C(=O)N[C@H]1CSSC[C@@H](C(=O)N[C@H](C(=O)N[C@H](C(=O)N[C@H](C(N)=O)[C@@H](C)O)[C@@H](C)O)[C@@H](C)CC)NC(=O)[C@H](Cc2c[nH]c3ccccc23)NC(=O)[C@H](CO)NC(=O)[C@@H](CCN)NC(=O)[C@H](CCC(=O)N[C@@H](CCN)C(=O)N[C@H](C(=O)N[C@@H](CN)C(=O)N[C@H]2CCNC(=O)[C@H]([C@@H](C)O)NC(=O)[C@H](CCN)NC(=O)[C@H](CCN)NC(=O)[C@H]([C@H](O)C(C)C)NC(=O)[C@@H](CC(C)C)NC(=O)[C@H](CCN)NC2=O)[C@@H](C)O)NC1=O)[C@@H](C)O [Ex. 223] (I: Ac-[Nle]TYCE[dDab]SWCITT-NH2 / II: [Dab]T[Dap][Dab][Dab][dL][Leu(3R-OH)][Dab][Dab]T; disulfide I:4-I:9; amide I:5-II:N; lactam II:4-II:C)	<1	0.0625 (≈ 0.0253 µM)	0.03125 (≈ 0.0126 µM)	0.125 (≈ 0.0506 µM)	0.0625 (≈ 0.0253 µM)	0.25 (≈ 0.101 µM)	0.03125 (≈ 0.0126 µM)	0.125 (≈ 0.0506 µM)	0.03125 (≈ 0.0126 µM)
CC(=O)N[C@H](C(=O)N[C@H](C(=O)N[C@@H](Cc1ccc(O)cc1)C(=O)N[C@H]1CSSC(C)(C)[C@@H](C(=O)N[C@H](C(=O)N[C@@H](CO)C(=O)N[C@H](C(N)=O)[C@@H](C)O)C(C)(C)C)NC(=O)[C@H](Cc2c[nH]c3ccccc23)NC(=O)[C@H](CCN)NC(=O)[C@@H](CCN)NC(=O)[C@H](CCC(=O)N[C@@H](CCN)C(=O)N[C@H](C(=O)N[C@@H](CN)C(=O)N[C@H]2CCNC(=O)[C@H]([C@@H](C)O)NC(=O)[C@H](CCN)NC(=O)[C@H](CCN)NC(=O)[C@H]([C@@H](C)O)NC(=O)[C@@H](CC(C)C)NC(=O)[C@H](CCN)NC2=O)[C@@H](C)O)NC1=O)[C@@H](C)O)C(C)C [Ex. 224] (I: Ac-VTYCE[dDab][Dab]W[Pen][Tle]ST-NH2 / II: [Dab]T[Dap][Dab][Dab][dL]T[Dab][Dab]T; disulfide I:4-I:9; amide I:5-II:N; lactam II:4-II:C)	1	0.125 (≈ 0.0509 µM)	0.0625 (≈ 0.0254 µM)	0.125 (≈ 0.0509 µM)	0.125 (≈ 0.0509 µM)	0.25 (≈ 0.102 µM)	0.03125 (≈ 0.0127 µM)	0.125 (≈ 0.0509 µM)	0.0625 (≈ 0.0254 µM)
CC(=O)N[C@H](C(=O)N[C@H](C(=O)N[C@@H](Cc1ccc(O)cc1)C(=O)N[C@H]1CSSC(C)(C)[C@@H](C(=O)N[C@H](C(=O)N[C@@H](CCC(=O)O)C(=O)N[C@H](C(N)=O)[C@@H](C)O)C(C)(C)C)NC(=O)[C@H](Cc2c[nH]c3ccccc23)NC(=O)[C@H](CCN)NC(=O)[C@@H](CCN)NC(=O)[C@H](CCC(=O)N[C@@H](CCN)C(=O)N[C@H](C(=O)N[C@@H](CN)C(=O)N[C@H]2CCNC(=O)[C@H]([C@@H](C)O)NC(=O)[C@H](CCN)NC(=O)[C@H](CCN)NC(=O)[C@H]([C@H](O)C(C)C)NC(=O)[C@@H](CC(C)C)NC(=O)[C@H](CCN)NC2=O)[C@@H](C)O)NC1=O)[C@@H](C)O)C(C)C [Ex. 225] (I: Ac-VTYCE[dDab][Dab]W[Pen][Tle]ET-NH2 / II: [Dab]T[Dap][Dab][Dab][dL][Leu(3R-OH)][Dab][Dab]T; disulfide I:4-I:9; amide I:5-II:N; lactam II:4-II:C)	<1	0.125 (≈ 0.0495 µM)	0.25 (≈ 0.0989 µM)	0.25 (≈ 0.0989 µM)	0.0625 (≈ 0.0247 µM)	1 (≈ 0.396 µM)	0.0625 (≈ 0.0247 µM)	0.125 (≈ 0.0495 µM)	0.125 (≈ 0.0495 µM)
CC(=O)N[C@H](C(=O)N[C@@H](CN)C(=O)N[C@@H](Cc1ccc(O)cc1)C(=O)N[C@H]1CSSC[C@@H](C(=O)N[C@H](C(=O)N[C@@H](CC(=O)O)C(=O)N[C@H](C(N)=O)[C@@H](C)O)C(C)(C)C)NC(=O)[C@H](Cc2c[nH]c3ccccc23)NC(=O)[C@H](CO)NC(=O)[C@@H](CCN)NC(=O)[C@H](CCC(=O)N[C@@H](CCN)C(=O)N[C@H](C(=O)N[C@@H](CN)C(=O)N[C@H]2CCNC(=O)[C@H]([C@@H](C)O)NC(=O)[C@H](CCN)NC(=O)[C@H](CCN)NC(=O)[C@H](CC(C)C)NC(=O)[C@@H](CC(C)C)NC(=O)[C@H](CCN)NC2=O)[C@@H](C)O)NC1=O)C(C)C [Ex. 227] (I: Ac-V[Dap]YCE[dDab]SWC[Tle]DT-NH2 / II: [Dab]T[Dap][Dab][Dab][dL]L[Dab][Dab]T; disulfide I:4-I:9; amide I:5-II:N; lactam II:4-II:C)	<1	0.125 (≈ 0.0512 µM)	0.125 (≈ 0.0512 µM)	0.125 (≈ 0.0512 µM)	0.125 (≈ 0.0512 µM)	0.5 (≈ 0.205 µM)	0.03125 (≈ 0.0128 µM)	0.125 (≈ 0.0512 µM)	0.03125 (≈ 0.0128 µM)
CC(=O)N[C@@H]1C(=O)N[C@@H]([C@@H](C)O)C(=O)N[C@@H](Cc2ccc(O)cc2)C(=O)N[C@@H](CCN)C(=O)N[C@@H](CCC(=O)N[C@@H](CCN)C(=O)N[C@H](C(=O)N[C@@H](CN)C(=O)N[C@H]2CCNC(=O)[C@H]([C@@H](C)O)NC(=O)[C@H](CCN)NC(=O)[C@H](CCN)NC(=O)[C@H](CC(C)C)NC(=O)[C@@H](CC(C)C)NC(=O)[C@H](CCN)NC2=O)[C@@H](C)O)C(=O)N[C@H](CCN)C(=O)N[C@@H](CCN)C(=O)N[C@@H](Cc2c[nH]c3ccccc23)C(=O)N[C@@H](CCC(=O)O)C(=O)N[C@@H](C(C)(C)C)C(=O)N[C@@H](C)C(=O)N[C@H](C(N)=O)CSSC1(C)C [Ex. 228] (I: Ac-[Pen]TY[Dab]E[dDab][Dab]WE[Tle]AC-NH2 / II: [Dab]T[Dap][Dab][Dab][dL]L[Dab][Dab]T; disulfide I:1-I:12; amide I:5-II:N; lactam II:4-II:C)	<1	8 (≈ 3.22 µM)	4 (≈ 1.61 µM)	1 (≈ 0.403 µM)	0.25 (≈ 0.101 µM)	1 (≈ 0.403 µM)	0.5 (≈ 0.201 µM)	0.25 (≈ 0.101 µM)	1 (≈ 0.403 µM)
CC(C)C[C@@H]1NC(=O)[C@@H](CC(C)C)NC(=O)[C@H](CCN)NC(=O)[C@@H](NC(=O)[C@H](CN)NC(=O)[C@@H](NC(=O)[C@H](CCN)NC(=O)CC[C@@H]2NC(=O)[C@H](CN)NC(=O)[C@H](Cc3ccc(O)cc3)NC(=O)[C@@H](NC(=O)[C@@H](NC(=O)[C@@H]3CCC(=O)N3)C(C)C)CSSC[C@@H](C(=O)N[C@H](CO)[C@@H](C)O)NC(=O)[C@H](C(C)(C)C)NC(=O)[C@H](CO)NC(=O)[C@H](Cc3c[nH]c4ccccc34)NC(=O)[C@H]([C@@H](C)O)NC(=O)[C@@H](CCN)NC2=O)[C@@H](C)O)CCNC(=O)[C@H]([C@@H](C)O)NC(=O)[C@H](CCN)NC(=O)[C@H](CCN)NC1=O [Ex. 232] (I: [pGlu]VCY[Dap]E[dDab]TWS[Tle]C[Thr(ol)] / II: [Dab]T[Dap][Dab][Dab][dL]L[Dab][Dab]T; disulfide I:3-I:12; amide I:6-II:N; lactam II:4-II:C)	<1	0.125 (≈ 0.0503 µM)	0.0625 (≈ 0.0252 µM)	0.0625 (≈ 0.0252 µM)	0.125 (≈ 0.0503 µM)	0.125 (≈ 0.0503 µM)	0.0625 (≈ 0.0252 µM)	0.125 (≈ 0.0503 µM)	0.0625 (≈ 0.0252 µM)
CC(C)C[C@@H]1NC(=O)[C@@H](CC(C)C)NC(=O)[C@H](CCN)NC(=O)[C@@H](NC(=O)[C@H](CN)NC(=O)[C@@H](NC(=O)[C@H](CCN)NC(=O)CC[C@@H]2NC(=O)[C@H](CN)NC(=O)[C@H](Cc3ccc(O)cc3)NC(=O)[C@@H](NC(=O)[C@@H](NC(=O)[C@H]3CCC(=O)N3)C(C)C)CSSC[C@@H](C(=O)N[C@H](CO)[C@@H](C)O)NC(=O)[C@H](C(C)(C)C)NC(=O)[C@H](CO)NC(=O)[C@H](Cc3c[nH]c4ccccc34)NC(=O)[C@H]([C@@H](C)O)NC(=O)[C@@H](CCN)NC2=O)[C@@H](C)O)CCNC(=O)[C@H]([C@@H](C)O)NC(=O)[C@H](CCN)NC(=O)[C@H](CCN)NC1=O [Ex. 233] (I: [d(pGlu)]VCY[Dap]E[dDab]TWS[Tle]C[Thr(ol)] / II: [Dab]T[Dap][Dab][Dab][dL]L[Dab][Dab]T; disulfide I:3-I:12; amide I:6-II:N; lactam II:4-II:C)	<1	0.125 (≈ 0.0503 µM)	0.0625 (≈ 0.0252 µM)	0.0625 (≈ 0.0252 µM)	0.0625 (≈ 0.0252 µM)	0.0625 (≈ 0.0252 µM)	0.03125 (≈ 0.0126 µM)	0.125 (≈ 0.0503 µM)	0.0625 (≈ 0.0252 µM)
